US11147272B2, “Pyridone compounds and agricultural and horticultural fungicides comprising the same as active ingredients” (MITSUI CHEMICALS AGRO, INC., priority 2017, dated 2021)

Tests used:
Magnaporthe grisea = assay: whole plant or invertebrate; format: in vivo; conditions: Blast on rice; for Test A control value class: class of control value; for Test A control value: control value class
Alternaia brassicicola = assay: Test Example C: Alternaria sooty spot on cabbage; format: in vivo; conditions: Alternaria sooty spot on cabbage; for Test C control value class: class of control value; for Test C control value: control value class
Excerpt: Seeds of a test plant (cabbage variety: Shikidori) were planted and cultivated until the cotyledons extended.
<Control Value> Control value=100{1−(n/3)}

Puccinia recondita = assay: Test Example E: Brown rust on wheat; format: in vivo; conditions: Brown rust on wheat; for Test E control value class: class of control value; for Test E control value: control value class
Phytophthora infestans = assay: whole plant or invertebrate; format: in vivo; conditions: Late blight on tomato; for Test F control value class: class of control value; for Test F control value: control value class
Botrytis cinerea = assay: Test Example B: Gray mold on tomato; conditions: Gray mold on tomato; for Test B control value class: class of control value; for Test B control value: control value class
Description: Seeds of a test plant (tomato variety: Oogata Fukuju) were planted and cultivated until three to five first leaves (true leaves) appeared. In the test, the inventive compounds were dissolved into dimethyl sulfoxide-methanol mixture solution (volume ratio: 9/1), and the resultant solutions were diluted with well water to a concentration of 250 ppm to obtain the drug solutions. The drug solutions were sprayed to the test plant (2.5 ml/pot). After the drug solutions dried, a conidial suspension (4-8×10^5 conidia/ml) of Botrytis cinerea was inoculated to the plant by spraying. After the inoculation, the plant was kept in a mist chamber at room temperature of 20 to 23° C. for about 48 hours to promote the onset of disease. The degrees of disease development were investigated 2 to 3 days after the inoculation, and the effectiveness of the drug solutions was evaluated.
In Test Examples described above, the degrees of disease development were evaluated in increments of 0.05 from 0 (as no incidence of disease) to 3 (as the degree of disease development in an untreated plant group). Further, control values were calculated using the following equation based on the degree of disease development.
n=Degree of disease development in each treated group
In the table, H: more than 50% control value, L: 50% or less control value, and nt: not tested.

Plasmopara viticola = assay: Test Example G: Downy mildew on vine; conditions: 250 ppm spray; for Test G control value class: Downy mildew on vine (Neomuscat), 2.5 ml/pot, assessed 7 to 10 days after inoculation; for Test G control value: Downy mildew on vine, 7 to 10 days after inoculation
[1] = system: Colletotrichum orbiculare; assay: Test Example H: Anthracnose on cucumber; conditions: 250 ppm spray; for Test H control value class: Anthracnose on cucumber (Sagami Hanjiro), 2.5 ml/pot, assessed 6 to 10 days after inoculation; for Test H control value: Anthracnose on cucumber, 6 to 10 days after inoculation
[2] = system: Blumeria graminis f. sp. hordei; assay: Test Example D: Powdery mildew on barley; conditions: Powdery mildew on barley; for Test D control value class: class of control value; for Test D control value: control value class

Compound: CCn1c(-c2ccc(Br)cc2)c(CC(C)C)cc(Br)c1=O [compound 178]
- Test A control value class (Magnaporthe grisea): L (50% or less control value)
- Test C control value class (Alternaia brassicicola): H (more than 50% control value)
- Test E control value class (Puccinia recondita): H (more than 50% control value)
- Test F control value class (Phytophthora infestans): L (50% or less control value)
- Test B control value class (Botrytis cinerea): H (more than 50% control value)
- Test G control value class (Plasmopara viticola): L (50% or less control value)
- Test H control value class [1]: L (50% or less control value)
- Test D control value class [2]: L (50% or less control value)

Compound: CCn1c(-c2c(F)cc(OC)cc2F)c(C(=O)C(C)(C)C)cc(Cl)c1=O [compound 179]
- Test A control value class (Magnaporthe grisea): H (more than 50% control value)
- Test C control value class (Alternaia brassicicola): H (more than 50% control value)
- Test E control value class (Puccinia recondita): H (more than 50% control value)
- Test F control value class (Phytophthora infestans): L (50% or less control value)
- Test B control value class (Botrytis cinerea): H (more than 50% control value)
- Test G control value class (Plasmopara viticola): L (50% or less control value)
- Test H control value class [1]: H (more than 50% control value)
- Test D control value class [2]: H (more than 50% control value)

Compound: CCn1c(-c2ccc(F)cc2Cl)c(C2CCCCC2)cc(Cl)c1=O [compound 181]
- Test A control value class (Magnaporthe grisea): H (more than 50% control value)
- Test C control value class (Alternaia brassicicola): H (more than 50% control value)
- Test E control value class (Puccinia recondita): H (more than 50% control value)
- Test F control value class (Phytophthora infestans): L (50% or less control value)
- Test B control value class (Botrytis cinerea): H (more than 50% control value)
- Test G control value class (Plasmopara viticola): H (more than 50% control value)
- Test H control value class [1]: H (more than 50% control value)
- Test D control value class [2]: H (more than 50% control value)

Compound: CCn1c(-c2ccc(F)cc2Cl)c(C2CCCCC2)cc(Br)c1=O [compound 182]
- Test A control value class (Magnaporthe grisea): H (more than 50% control value)
- Test C control value class (Alternaia brassicicola): H (more than 50% control value)
- Test E control value class (Puccinia recondita): H (more than 50% control value)
- Test F control value class (Phytophthora infestans): L (50% or less control value)
- Test B control value class (Botrytis cinerea): H (more than 50% control value)
- Test G control value class (Plasmopara viticola): L (50% or less control value)
- Test H control value class [1]: L (50% or less control value)
- Test D control value class [2]: H (more than 50% control value)

Compound: CCc1ccc(=O)n(CC)c1-c1ccc(F)cc1Cl [compound 185]
- Test A control value (Magnaporthe grisea): L (50% or less control value)
- Test C control value (Alternaia brassicicola): H (more than 50% control value)
- Test E control value (Puccinia recondita): H (more than 50% control value)
- Test F control value (Phytophthora infestans): L (50% or less control value)
- Test B control value (Botrytis cinerea): H (more than 50% control value)
- Test G control value (Plasmopara viticola): L (50% or less control value)
- Test H control value [1]: L (50% or less control value)
- Test D control value [2]: H (more than 50% control value)

Compound: CCc1cc(Br)c(=O)n(CC)c1-c1ccc(F)cc1Cl [compound 186]
- Test A control value (Magnaporthe grisea): H (more than 50% control value)
- Test C control value (Alternaia brassicicola): H (more than 50% control value)
- Test E control value (Puccinia recondita): H (more than 50% control value)
- Test F control value (Phytophthora infestans): L (50% or less control value)
- Test B control value (Botrytis cinerea): H (more than 50% control value)
- Test G control value (Plasmopara viticola): H (more than 50% control value)
- Test H control value [1]: H (more than 50% control value)
- Test D control value [2]: H (more than 50% control value)

Compound: CCc1cc(Cl)c(=O)n(CC)c1-c1ccc(F)cc1Cl [compound 189]
- Test A control value (Magnaporthe grisea): H (more than 50% control value)
- Test C control value (Alternaia brassicicola): H (more than 50% control value)
- Test E control value (Puccinia recondita): H (more than 50% control value)
- Test F control value (Phytophthora infestans): L (50% or less control value)
- Test B control value (Botrytis cinerea): H (more than 50% control value)
- Test G control value (Plasmopara viticola): H (more than 50% control value)
- Test H control value [1]: H (more than 50% control value)
- Test D control value [2]: H (more than 50% control value)
